The text below walks through data of patent US8933195B2, “Histone deacetylase inhibitors and synthetic method thereof and use thereof in manufacture of medicaments” (Nanjing Yoko Biomedical R & D Ltd., priority 2011, dated 2015).

One experiment has as its target HDAC1 (Homo sapiens, UniProt Q13547). The experiment is described as follows: Measurement of biochemical activities of HDAC (fluorescently-labeled acetylated lysine substrate). Conditions: read-out: IC50 HDAC1. In outline:
(§1)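 For both HDAC isoforms, fluorescent acetyl-lysine substrate ([…] in reaction) incubated with enzyme and compounds for 30 min at 37; developer then added for 15 min at room temperature. Fluorescence read at excitation 360 nm, emission 460 nm.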

Another experiment addresses T1, HDAC7 (Homo sapiens, UniProt Q8WUI4).
T1 sequence (Q8WUI4 1-952): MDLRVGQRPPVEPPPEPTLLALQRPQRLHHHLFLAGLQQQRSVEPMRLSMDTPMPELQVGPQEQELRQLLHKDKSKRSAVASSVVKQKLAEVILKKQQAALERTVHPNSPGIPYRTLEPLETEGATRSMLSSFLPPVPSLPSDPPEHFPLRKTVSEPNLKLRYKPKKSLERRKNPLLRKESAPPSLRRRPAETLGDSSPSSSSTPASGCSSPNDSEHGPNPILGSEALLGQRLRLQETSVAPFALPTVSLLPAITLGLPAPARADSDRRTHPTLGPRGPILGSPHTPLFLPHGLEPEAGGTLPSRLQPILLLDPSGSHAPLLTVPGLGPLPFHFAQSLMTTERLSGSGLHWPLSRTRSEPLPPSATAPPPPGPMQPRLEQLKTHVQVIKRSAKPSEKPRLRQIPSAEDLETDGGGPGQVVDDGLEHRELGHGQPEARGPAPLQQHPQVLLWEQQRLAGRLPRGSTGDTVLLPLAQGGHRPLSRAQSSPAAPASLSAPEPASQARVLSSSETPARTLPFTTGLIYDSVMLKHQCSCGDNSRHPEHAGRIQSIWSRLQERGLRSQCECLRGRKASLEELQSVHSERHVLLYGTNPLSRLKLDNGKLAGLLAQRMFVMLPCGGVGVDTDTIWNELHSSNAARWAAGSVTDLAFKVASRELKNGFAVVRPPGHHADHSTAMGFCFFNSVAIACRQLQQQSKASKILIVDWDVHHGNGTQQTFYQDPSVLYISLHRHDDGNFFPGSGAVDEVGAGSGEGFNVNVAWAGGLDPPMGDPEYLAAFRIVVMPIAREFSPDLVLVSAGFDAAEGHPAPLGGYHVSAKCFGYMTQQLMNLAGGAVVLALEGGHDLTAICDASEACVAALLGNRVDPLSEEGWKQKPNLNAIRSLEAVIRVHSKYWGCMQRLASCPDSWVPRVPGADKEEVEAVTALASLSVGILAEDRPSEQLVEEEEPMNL
Described as above. In outline: as §1

The test system of experiment [1] is A549 (human lung cancer cells). Nature of the experiment: MTT cancer cell growth inhibition. It counts as cell-based. The conditions noted are these: 72 h. The method in brief: (§2)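 Absorbance at 570 nm of DMSO-dissolved formazan, after 4 h MTT labelling, gave cell survival rate. Before labelling, cells (1500/well, overnight attachment) were treated in triplicate for 72 h at 37 °C with compound at final 10^−5–10^−10 M; vehicle control 0.1% DMSO.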

Experiment [2] deals with BGC-823 (human gastric cancer cells). Nature of the experiment: MTT cancer cell growth inhibition. Format: cell-based. Conditions: 72 h, read-out: GI50 BGC823. In outline: as §2
The subject of experiment [3] is DU145 (human prostate cancer cells). The experiment is described as follows: MTT cancer cell growth inhibition. It counts as cell-based. Conditions: DU-145, 72 h. In outline: as §2
Experiment [4] relates to HT1080 (human fibrosarcoma cells). Nature of the experiment: MTT cancer cell growth inhibition. Format: cell-based. The conditions noted are these: HT-1080, 72 h. In outline:
as §2

Experiment [5] has as its system Hela (human cervical cancer cells). The experiment is described as follows: MTT cancer cell growth inhibition. It counts as cell-based. The conditions noted are these: 72 h. In outline: as §2
The test system of experiment [6] is MCF-7 (human breast cancer cells). The experiment is described as follows: MTT cancer cell growth inhibition. It counts as cell-based. Conditions: MCF7, 72 h. In outline: as §2
The subject of experiment [7] is MOLT-4 (human acute lymphoblastic leukemia cells). The experiment is described as follows: MTT cancer cell growth inhibition. Format: cell-based. The conditions noted are these: 72 h. In outline:
as §2

A further experiment has as its system PANC-1. Nature of the experiment: MTT cancer cell growth inhibition. The conditions noted are these: Homo sapiens, 72 h. It counts as cell-based. The method in brief: as §2
Experiment [8] concerns U937 (human leukemia cells). Nature of the experiment: MTT cancer cell growth inhibition. Conditions: U-937, 72 h. It counts as cell-based. In outline: as §2
A further experiment relates to Incap. Nature of the experiment: MTT cancer cell growth inhibition. The conditions noted are these: 72 h. Format: cell-based.

Structures are written as SMILES.

Chain of HDAC1 (Q13547 whole entry, species assumed, canonical isoform): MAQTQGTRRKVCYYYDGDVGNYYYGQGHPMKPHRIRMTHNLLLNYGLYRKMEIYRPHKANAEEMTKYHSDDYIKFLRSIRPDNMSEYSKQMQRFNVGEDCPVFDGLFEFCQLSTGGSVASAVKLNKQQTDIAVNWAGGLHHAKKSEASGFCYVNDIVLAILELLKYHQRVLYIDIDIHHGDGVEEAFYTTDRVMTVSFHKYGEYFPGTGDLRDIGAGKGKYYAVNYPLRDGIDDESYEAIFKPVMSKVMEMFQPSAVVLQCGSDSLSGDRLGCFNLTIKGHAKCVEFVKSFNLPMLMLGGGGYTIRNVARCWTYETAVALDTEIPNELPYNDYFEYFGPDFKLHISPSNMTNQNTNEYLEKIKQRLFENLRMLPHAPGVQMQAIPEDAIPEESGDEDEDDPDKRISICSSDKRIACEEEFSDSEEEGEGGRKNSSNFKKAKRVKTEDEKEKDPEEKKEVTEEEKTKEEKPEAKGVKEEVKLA

The term IC50 denotes the concentration at which inhibition is half-maximal. The term GI50 denotes the concentration at which growth is held to half of that of the control. Consider `C/C=C1\NC(=O)c2csc(n2)CNC(=O)C[C@@H](/C=C/CCSC(=O)CCO)OC(=O)[C@H](C(C)C)NC1=O` [Compound 6-5], for which the IC50 on HDAC1 was below 10000 nM. The “IC50 HDAC7” value on HDAC7 is recorded as “no activity”. Also, the GI50 was 365 nM in [1]; 26500 nM in experiment [2]; 695 nM in experiment [3]; 1650 nM in [4]; 540 nM in experiment [5]; 4120 nM in experiment [6]. The GI50 in [7] came out at 268 nM; in the experiment on PANC-1, 1640 nM; in experiment [8], 2660 nM; with Incap, 450 nM.

`C/C=C1\NC(=O)c2csc(n2)CNC(=O)C[C@@H](/C=C/CCSC(=O)CCN)OC(=O)[C@H](C(C)C)NC1=O` [Compound 6-6]: on HDAC1, the concentration for half-maximal inhibition (IC50) was below 1000 nM. Besides, on HDAC7, the “IC50 HDAC7” value is recorded as “no activity”. In addition, the GI50 came out at 1 nM in experiment [1]; 65 nM in [2]; 300 nM in experiment [3]; 4160 nM in [4]; 860 nM in experiment [5]; 952 nM in experiment [6]. For the same compound, the GI50 in experiment [7] stood at 56400 nM; in the experiment with PANC-1 it was 1650 nM; in [8], 1290 nM; in the experiment on Incap, 650 nM.
